Test: Particle size of the nanoparticle
Type: physicochemical
Conditions: iodinated nanoparticle, 15% (w/v)

With CCOC(=O)CCCCCOC(=O)c1c(I)c(NC(C)=O)c(I)c(NC(C)=O)c1I [PH-50, 6-ethoxy-6-oxohexy-3,5-bis(acetylamino)-2,4,6-triiodobenzoate] the mean diameter was 282 nm.

From patent US20100055032A1, “METHODS FOR […] IMAGING USING NANOP[…] AGENTS” (NanoScan Imaging LLC, priority 2001, published 2010)
